In patent US6936735B2, “Photostable cationic organic sunscreen compounds and compositions obtained therefrom” (EMD Chemicals, Inc., priority 2002, dated 2005):

Legend:
Format in all cases: physicochemical
[1] = Comparative photostability of thin film under UV-B irradiation (Q-UV Accelerated Weathering Tester); settings: UV-B (1 MED/h), thin film with 0.1% PVP-VA on glass plate, Example 3 1%, Incroquat 283 1%, HP610 0.1%
Experimental: (§1) The photostability of compounds of the present invention as well as existing commercial cationic sunscreens is tested according to the procedure described below: • Photostability: Comparative Photostability of Example 3, Incroquat® 283 and Escalol® HP610
(§2) Three products [Example 3 (1%), Incroquat 283 (1%) and HP610 (0.1%)] were tested for their photostability by dissolving separately in water or ethanol-water solution containing 0.1% Poly(vinylpyrrolidone-vinyl acetate) copolymer (PVP-VA S630 from ISP). Air drying on a glass plate for one hour gave a thin film, which were irradiated under UV A (2 MED/h) and UV B (1 MED/h) light separately over an 8 h period in a Q-UV Accelerated Weathering Tester. Photodegradation was calculated from the decrease in the maximum absorption of the respective products. The results are illustrated in the Tables 1 and 2.

[2] = Comparative photostability of thin film under UV-A irradiation (Q-UV Accelerated Weathering Tester); settings: UV-A (2 MED/h), thin film with 0.1% PVP-VA on glass plate, Example 3 1%, Incroquat 283 1%, HP610 0.1%
Experimental: as §1, §2

Solubility = settings: for solubility in water: water / aqueous solution
UV absorption maximum = settings: EtOH:water—70%:30%
Experimental: The mass was degassed for one hour at 90-95 deg. C. under vacuum. The yield obtained is about 85%. […] A 50% solution in water was prepared for ease of handling.

| Molecule | % Product Retained After 1 hr [1] | % Product Retained After 2 hr [1] | % Product Retained After Initial [1] | % Product Retained After 2 hr [2] | % Product Retained After 4 hr [2] | % Product Retained After 6 hr [2] | % Product Retained After Initial [2] | maximal concentration reached in solution (Solubility; aqueous-ethanolic solution (30:70%)) | solubility in water (Solubility) | λmax (UV absorption maximum) |
| --- | --- | --- | --- | --- | --- | --- | --- | --- | --- | --- |
| CCCCCCCCCCCC[N+](C)(C)CCCNC(=O)c1ccc(N(C)C)cc1.Cc1ccc(S(=O)(=O)[O-])cc1 [Escalol HP ®-610] | 33% | 28% | 100% | 50% | 40% | 30% | 100% | 0.25% | very poor solubility |  |
| Bis-N-[3(N,N-dimethylamino)propyl]-3,4,5-trimethoxy benzylidene malonamide bis ethylsulfate [Example 3] | 96% | 93% | 100% | 98% | 97% | 94% | 100% |  | soluble in water | 301 nm |
